Values quoted from earlier work as cited in patent US8808722B2, “Stable antiseptic compositions and methods” (3M Innovative Properties Company, priority 2010, dated 2014).

Details: at 25° C.

In the case of `II` [elemental iodine, iodine], the solubility in water is listed as 0.03 wt-%.
